Measurements published in patent US7189761B2, “Nitric oxide donor composition and method for treatment of anal disorders” (priority 1994, dated 2007).
Like-named read-outs stand apart in the source and are kept apart here. Ends that are not written are not given here.

Legend:
[1] = tested on: internal anal sphincter (IAS); details: cited from earlier work; for effect on the decrease in IAS resting pressures in response to the rectoanal reflex: reflex mimicked by rectal balloon distention; for reversal of the L-NNA suppression of rectoanal reflex-induced IAS relaxation: in vivo
[2] = tested on: smooth muscle strips of the internal anal sphincter (IAS); details: cited from earlier work
[3] = tested on: human internal anal sphincter muscle strips; details: cited from earlier work; for effect on relaxations produced by transmural field stimulation: in the presence of atropine and guanethidine
anal fissure = experiment: Case reports: topical ointment in patients with anal fissure; format: in vivo, human; details: person, superficial posterior midline anal fissure, patient history
Procedure: The patient rated their pre-treatment pain 7/10. The patient applied approximately 500 mg of the ointment as prepared in Example 1, three times daily and after bowel movements. The patient reported that their pain was gone following initial application.
The patient rated their pre-treatment pain 7/10. The patient applied approximately 500 mg of the ointment as prepared in Example 1, three times daily and after bowel movements. […] After three weeks of treatment, the fissure was healed, and the pain was gone.
They had previously failed a course of hydrocortisone therapy. Pre-treatment pain was rated 9/10. The patient was treated with approximately 500 mg of the preparation of Example 1, three times daily and after bowel movements. After one week of treatment, the fissure was still present, and pain was rated 8/10. The patient was then treated with approximately 500 mg of the preparation of Example 2, three times daily and after bowel movements. Following one week of therapy with the ointment as of Example 2, the patient reported no pain and no bleeding.
Pre-treatment pain was rated 4/10. The patient was treated with the ointment as of Example 2, approximately 500 mg three times daily and after bowel movements. Following one week of therapy, the patient reported that their pain had diminished, and it was rated 2/10. […]

[4] = isolated IAS smooth muscle strips
[5] = response to lower frequencies of EFS and DMPP

For `CC(C)NCC(O)c1ccc(O)c(O)c1` (centres unmarked) [isoproterenol], the “effect on the resting pressure of the IAS” value ([1]; not modified by L-NNA) is listed as “decrease” and the “IAS relaxation and release of NO” value [2, 4] is listed as “caused IAS relaxation without any increase in NO release”.

In the case of `N=C(NCCC[C@H](N)C(=O)O)N[N+](=O)[O-]` [L-NNA, L-NG-nitro-arginine], the “effect on relaxations produced by transmural field stimulation” value [3] is given as “completely”, the “effect on the decrease in IAS resting pressures in response to the rectoanal reflex” value [1] is given as “significant dose-dependent suppression” and the “effect on NO release caused by vasoactive intestinal polypeptide” value ([2]; IAS smooth muscle strips) is given as “abolished”. For the same molecule, the “effect of pretreatment on NO release and fall in IAS resting tension” value [2, 5] was “abolished”.

For `N=C(N)NCCC[C@@H](N)C(=O)O` [D-arginine], the “reversal of the inhibitory effects of NO synthase antagonists” value [3] is listed as “did not reverse”, the “reversal of the L-NNA suppression of rectoanal reflex-induced IAS relaxation” value [1] is listed as “failed to reverse” and the “reversal of the loss of NO release and IAS relaxation” value [2] is listed as “no significant effect”.

In the case of `NC1=N[C@H](O)[C@H]2[C@H]3O[C@]4(O)O[C@@H]([C@@H](O)[C@@]2(N1)[C@@H]4O)[C@]3(O)CO` [tetrodotoxin], the “effect of pretreatment on NO release and fall in IAS resting tension” value [2] is listed as “abolished”.

In the case of `NC(=NCCC[C@@H](N)C(=O)O)N[N+](=O)[O-]` [D-NNA], the “effect on the decrease in IAS resting pressures in response to the rectoanal reflex” value [1] is given as “no effect” and the “effect of pretreatment on NO release and fall in IAS resting tension” value [2, 5] is given as “no significant effect”.

In the case of oxyhaemoglobin, the “effect on relaxations produced by transmural field stimulation” value [3] is listed as “abolished”.

In the case of atrial natriuretic factor, the “IAS relaxation and release of NO” value [2, 4] is given as “caused IAS relaxation without any increase in NO release”.

For `C[N+]1(C)CCN(c2ccccc2)CC1` [DMPP, 1,1-dimethyl-4-phenylpiperazinium], the “IAS relaxation and release of NO” value [2] is listed as “caused IAS relaxation with an accompanying release of NO”.

For `N=C(N)NCCC[C@H](N)C(=O)O` [L-arginine], the “reversal of the inhibitory effects of NO synthase antagonists” value [3] is given as “reversed”, the “reversal of the L-NNA suppression of rectoanal reflex-induced IAS relaxation” value [1] is given as “completely reversed” and the “reversal of the loss of NO release and IAS relaxation” value [2] is given as “reversed to control levels”.

With `C[C@]12CCC(=O)C=C1CC[C@@H]1[C@@H]2[C@@H](O)C[C@@]2(C)[C@H]1CC[C@]2(O)C(=O)CO` [hydrocortisone, 11-17-21-trihydroxypregn-4-ene-3,20-dione] the “outcome of previous course of therapy” value (anal fissure) was “failed”.

For “vasoactive intestinal polypeptide: vasoactive intestinal polypeptide (HSDAVFTDNYTRLRKQMAVKKYLNSILN; ends and bridges not checked; UniProt P01282 125-152, looked up)”, the “IAS relaxation and release of NO” value [2, 4] is given as “release of NO”.
